Reference: patent US11976083B2, “Inhibitors of peptidylarginine deiminases” (Gilead Sciences, Inc., priority 2020, dated 2024)

Molecular target: T1, human PAD4 (Homo sapiens, UniProt Q9UM07)
T1 construct: human PAD4 (NM_012387), A2-P663, was PCR amplified; His-SUMO (N, cleaved yes); made in house; host or cells: E. coli BL21(DE3)
Experiment: In vitro PAD4 BAEE biochemical assay
Settings: BAEE substrate 3 mM, 5 nM PAD4, 2 mM calcium chloride; geometric mean of multiple experiments
Source text: In Vitro PAD4 BAEE Biochemical Assay
The enzymatic activity of human PAD4 was monitored in a biochemical assay in the presence or absence of compounds using the small peptidyl arginine mimic BAEE (Na-Benzoyl-L-arginine ethyl ester hydrochloride) as substrate. PAD4 activity led to deimination of BAEE and release of ammonia. Levels of ammonia were monitored by using an amine coupling reaction and were indicative of PAD4 enzymatic activity.
One hundred nanoliters of test compounds dissolved in DMSO at various concentrations were dispensed into a 384-well black OptiPlate using a Labcyte Echo instrument. Ten microliters of a solution of recombinant PAD4 and calcium chloride diluted in PAD4 assay buffer (50 mM MOPS [3-(N-morpholino) propanesulfonic acid], pH 7.6; 50 mM sodium chloride; 0.05% Tween-20; 2 mM dithiothreitol) was added to the compound-containing plate and was incubated for 30 minutes at 25° C. Ten microliters of a solution of BAEE (Sigma-Aldrich #B4500) diluted in PAD4 assay buffer was then added to start the reaction. Final concentrations were 5 nM PAD4, 2 mM calcium chloride, and 3 mM BAEE. The reaction mixture was incubated at 25° C. for 2 hours and was stopped with the addition of 10 microliters of a solution of 75 mM EDTA (Ethylenediaminetetraacetic acid) in PAD4 assay buffer. Thirty microliters of detection solution (5 mM o-phthalaldehyde, 50 mM MOPS [3-(N-morpholino) propanesulfonic acid], pH 7.6; 50 mM sodium chloride; 0.05% Tween-20; 5 mM dithiothreitol) was then added and the reaction was incubated for 1 hour at 25° C. The level of fluorescent thiol-substituted isoindole resulting from the reaction of ammonia, o-phthalaldehyde, and dithiothreitol was measured on an Envision plate reader (PerkinElmer) with 405 nm excitation and 535 nm emission.
Data were normalized based on maximum inhibition (50 micromolar of the covalent PAD inhibitor BB-Cl-Amidine (Bicker, K. L.; Anguish, L.; Chumanevich, A. A.; Cameron, M. D.; Cui, X.; Witalison, E.; Subramanian, V.; Zhang, X.; Chumanevich, A. P.; Hofseth, L. J.; Coonrod, S. A.; Thompson, P. R. ACS Med. Chem. Lett. 2012, 3, 1081-1085). and no inhibition (DMSO) controls. Least squares curve fittings were performed using a four-parameter variable slope nonlinear regression model. IC50 is defined as the concentration of compound required to inhibit 50% of maximum activity. IC50 values from multiple experiments were averaged by geometric mean and the standard deviation was calculated.

T1 sequence (Q9UM07 2-663): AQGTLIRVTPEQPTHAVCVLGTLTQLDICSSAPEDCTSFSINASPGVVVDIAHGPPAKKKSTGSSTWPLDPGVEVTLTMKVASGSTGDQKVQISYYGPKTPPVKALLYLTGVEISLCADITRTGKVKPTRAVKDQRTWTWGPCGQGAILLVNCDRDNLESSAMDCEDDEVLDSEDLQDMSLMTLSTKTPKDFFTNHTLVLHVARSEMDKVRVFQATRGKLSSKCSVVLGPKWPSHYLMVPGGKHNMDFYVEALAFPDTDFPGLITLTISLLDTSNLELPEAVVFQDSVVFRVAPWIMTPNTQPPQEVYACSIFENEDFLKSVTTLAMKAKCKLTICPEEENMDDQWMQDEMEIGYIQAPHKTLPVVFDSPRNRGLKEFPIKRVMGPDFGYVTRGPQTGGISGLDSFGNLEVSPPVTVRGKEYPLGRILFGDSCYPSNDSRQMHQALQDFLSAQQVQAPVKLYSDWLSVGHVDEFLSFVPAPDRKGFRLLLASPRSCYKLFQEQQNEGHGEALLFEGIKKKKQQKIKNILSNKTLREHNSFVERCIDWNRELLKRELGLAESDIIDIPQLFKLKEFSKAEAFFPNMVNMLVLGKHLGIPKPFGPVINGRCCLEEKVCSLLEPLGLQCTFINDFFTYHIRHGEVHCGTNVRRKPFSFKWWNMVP

| Compound | IC50 [nM] |
| --- | --- |
| COc1cc(C(=O)N2C[C@H](N)[C@@H]3CC[C@H]2C3)cc2nc(-c3cc4ccc5nc4n3CCCCCc3ccc(Cl)nc3C(=O)N[C@@H]5C)n(C)c12 [Example 954, (2~{R})-17-[5-[(1~{S},4~{R}, 5~{R})-4-amino-2-azabicyclo [3.2.1]octane-2-carbonyl]-7-methoxy-1-methyl-benzimidazol-2-yl]-7-chloro-2-methyl-3,6,16,22-tetrazatetracyclo[14.5.2.0^ {5,10}.0^{19,23}]tricosa-1(21),5(10),6,8,17,19,22-heptaen-4-one] | 32 |
| C[C@H]1NC(=O)C(C)(C)CCCCCCn2c(-c3nc4cc(C(=O)N5C[C@H](N)C[C@@H](F)C5)c(F)cc4n3C3CC3)cc3ccc1nc32 [Example 194, (11~{R})-17-[5-[(3~{R},5~{R})-3-amino-5-fluoro-piperidine-1-carbonyl]-1-cyclopropyl-6-fluoro-benzimidazol-2-yl]-8,8,11-trimethyl-1,10,19-triazatricyclo[10.5.2.0^{15,18}]nonadeca-12(19),13,15(18),16-tetraen-9-one] | 150 |
| C[C@H]1NC(=O)[C@H]2C[C@@H]2CC(F)(F)CCCn2c(-c3nc4cc(C(=O)N5C[C@H](N)[C@@H]6CC[C@H]5C6)cc(F)c4n3C3CC3)cc3ccc1nc32 [Example 880, (2~{R},5~{S},7~{R})-14-[5-[(1~{S},4~{R},5~{R})-4-amino-2-azabicyclo[3.2.1]octane-2-carbonyl]-1-cyclopropyl-7-fluoro-benzimidazol-2-yl]-9,9-difluoro-2-methyl-3,13,19-triazatetracyclo [11.5.2.0^{5,7}.0^{16,20}] icosa-1(19),14,16(20), 17-tetraen-4-one] | 39 |
| COc1cc(C(=O)N2C[C@H](N)[C@@H]3CC[C@H]2C3)cc2nc(-c3cc4ccc5nc4n3CCCc3ccc4cccc(c4c3)C(=O)N[C@@H]5C)n(C)c12 [Example 950, (4~{R})-10-[5-[(1~{S},4~{R},5~ {R})-4-amino-2-azabicyclo [3.2.1]octane-2-carbonyl]-7-methoxy-1-methyl-benzimidazol-2-yl]-4-methyl-3,6,11-triazapentacyclo [13.6.2.2^{5,8}.0^{7,11}.0^ {18,22}]pentacosa-1(22),5,7,9, 15(23),16,18,20,24-nonaen-2-one] | 38 |
| COc1cc(C(=O)N2CCC[C@@H](N)C2)cc2nc(-c3cc4ccc5nc4n3CCCCCCNC(=O)c3cccc(C)c3-5)n(C)c12 [Example 57, 17-[5-[(3~{R})-3-aminopiperidine-1-carbonyl]-7-methoxy-1-methyl-benzimidazol-2-yl]-3-methyl-9,16,22-triazatetracyclo[14.5.2.0^{2,7}.0^{19,23}] tricosa-1(22),2,4,6,17,19(23),20-heptaen-8-one] | 213 |
| COc1cc(C(=O)N2C[C@H]3C[C@@H]2[C@@H]3N)cc2nc(-c3cc4ccc5nc4n3CCCCCCC(C)(C)C(=O)N[C@@H]5C)n(C)c12 [Example 667, (11~{R})-17-[5-[(1~{R},4~ {R},5~{R})-5-amino-2-azabicyclo[2.1.1]hexane-2-carbonyl]-7-methoxy-1-methyl-benzimidazol-2-yl]-8,8,11-trimethyl-1,10,19-triazatricyclo[10.5.2.0^ {15,18}]nonadeca-12(19), 13,15(18),16-tetraen-9-one] | 70 |
| COc1cc(C(=O)N2C[C@H]3CC[C@@H]2[C@@H]3N)cc2nc(-c3cc4ccc5nc4n3CCCCCCCC(=O)N[C@@H]5C)c(C)n12 [Example 302, (11~{R})-17-[7-[(1~{R},4~{R},7~{R})-7-amino-2-azabicyclo[2.2.1]heptane-2-carbonyl]-5-methoxy-3-methyl-imidazo[1,2-a]pyridin-2-yl]-11-methyl-1,10,19-triazatricyclo[10.5.2.0^{15,18}]nonadeca-12(19),13,15(18),16-tetraen-9-one] | 67 |
| COc1cc(C(=O)N2CCC[C@@H](N)C2)cc2nc(-c3cc4ccc5nc4n3CCCCCCC(C)(C)C(=O)N[C@@H]5C)n(C3CC3)c12 [Example 230, (11~{R})-17-[5-[(3~{R})-3-aminopiperidine-1-carbonyl]-1-cyclopropyl-7-methoxy-benzimidazol-2-yl]-8,8,11-trimethyl-1,10,19-triazatricyclo[10.5.2.0^{15,18}]nonadeca-12(19),13,15(18),16-tetraen-9-one] | 84 |
| COc1cc(C(=O)N2CCC[C@@H](N)C2)cc2nc(-c3cc4ccc5nc4n3C[C@H]3C[C@@H]3[C@H](C)OCCC(=O)N[C@@H]5C)n(C)c12 [Example 161, (3~{S},5~{S},6~{S},12~{R})-18-[5-[(3~{R})-3-aminopiperidine-1-carbonyl]-7-methoxy-1-methyl-benzimidazol-2-yl]-6,12-dimethyl-7-oxa-1,11,20-triazatetracyclo[11.5.2.0^{3,5}.0^{16,19}] icosa-13(20),14,16(19),17-tetraen-10-one] | 108 |
| COc1cc(C(=O)N2CCC[C@@H](N)[C@H]2C)cc2nc(-c3cc4ccc5nc4n3CCCCCc3ccnc(C4CC4)c3C(=O)N[C@@H]5C)n(C)c12 [Example 664, (2~{R})-17-[5-[(2~{R},3~ {R})-3-amino-2-methyl-piperidine-1-carbonyl]-7-methoxy-1-methyl-benzimidazol-2-yl]-6-cyclopropyl-2-methyl-3,7,16,22-tetrazatetracyclo[14.5.2.0^ {5,10}.0^{19,23}] tricosa-1(22),5,7,9,17,19(23), 20-heptaen-4-one] | 51 |

Further lines, results first:

| IC50 [nM] | Compound |
| --- | --- |
| 68 | COC[C@]12C[C@H]1CCCCCn1c(-c3nc4cc(C(=O)N5CC[C@@H](OC)[C@@H](N)C5)cc(OC)c4n3C)cc3ccc(nc31)[C@@H](C)NC2=O [Example 864, (2~{R},5~{S),7~{R})-14-[5-[(3~{S},4~{R})-3-amino-4-methoxy-piperidine-1-carbonyl]-7-methoxy-1-methyl-benzimidazol-2-yl]-5-(methoxymethyl)-2-methyl-3,13,19-triazatetracyclo [11.5.2.0^{5,7}.0^{16,20}] icosa-1(19),14,16(20), 17-tetraen-4-one] |
| 106 | COc1cc(C(=O)N2CC[C@H]3CCCN[C@H]3C2)cc2nc(-c3cc4ccc5nc4n3CCCCCCC(C)(C)C(=O)N[C@@H]5C)n(C)c12 (single isomer, unassigned) [Example 261, (11˜{R})-17-[5-[(4˜{a}˜{R},8˜{a}˜{R})-2,3,4,4˜{a},5,6,8,8˜{a}-octahydro-1˜{H}-1,7-naphthyridine-7-carbonyl]-7-methoxy-1-methyl-benzimidazol-2-yl]-8,8,11-trimethyl-1,10,19-triazatricyclo[10.5.2.0^{15,18}]nonadeca-12(19),13,15(18),16-tetraen-9-one] |
| 44 | COc1cc(C(=O)N2CC[C@@H](OC)[C@@H](N)C2)cc2nc(-c3cc4ccc5nc4n3CCCCCc3cc(Cl)ncc3C(=O)N[C@@H]5C)n(C)c12 [Example 653, 17-[5-[(3~{S},4~{R})-3-amino-4-methoxy-piperidine-1-carbonyl]-7-methoxy-1-methyl-benzimidazol-2-yl]-8-chloro-2-methyl-3,7,16,22-tetrazatetracyclo[14.5.2.0^ {5,10}.0^{19,23}] tricosa-1(22),5,7,9,17,19(23), 20-heptaen-4-one] |
| 268 | COc1cc(C(=O)N2CC[C@@H](OC)[C@@H](N)C2)cc2nc(-c3cc4ccc5nc4n3CCCCC[C@H]3C(F)(F)[C@]3(C)C(=O)N[C@@H]5C)n(C)c12 [Example 694, (2~{R},5~{S},7~{R})-14-[5-[(3~{S},4~{R})-3-amino-4-methoxy-piperidine-1-carbonyl]-7-methoxy-1-methyl-benzimidazol-2-yl]-6,6-difluoro-2,5-dimethyl-3,13,19-triazatetracyclo[11.5.2.0^ {5,7}.0^{16,20}]icosa-1(19), 14,16(20),17-tetraen-4-one] |
| 74 | COc1cc(C(=O)N2CCC[C@@H](N)C2)cc2nc(-c3cc4ccc5nc4n3CCCCCOCC(C)(C)C(=O)N[C@@H]5C)n(C)c12 [Example 17, (12~{R})-18-[5-[(3~{R})-3-aminopiperidine-1-carbonyl]-7-methoxy-1-methyl-benzimidazol-2-yl]-9,9,12-trimethyl-7-oxa-1,11,20-triazatricyclo[11.5.2.0^{16,19}]icosa-13(20),14,16(19),17-tetraen-10-one] |
